Test results reported in US20100119599A1 (ARCHER PHARMACEUTICALS, INC., priority 2006, published 2010).

Legend:
Aβ1-40 = assay: Measurement of Aβ1-40 in culture medium of 7W WT APP751 CHO cells by ELISA; format: cell-based, Chinese hamster; conditions: for Aβ1-40 (% of control): CHO cells that overexpress APP751, zero = below the detection limit of the assay; for activity at 5 µM: Cricetulus griseus, Table 1, 5 μM test compound, CHO cells stably transfected with human APP751, culture medium, ELISA, control DMSO, 0 = no detectable amount
Method: (§1) Chinese hamster ovary (CHO) cells, stably transfected with human APP751 (7W WT APP751 CHO cells) were used. See, e.g., Koo and Squazzo, J. Biol. Chem., 269(26): 17386-17389, 1994. The cells were maintained in DMEM medium supplemented with 10% fetal bovine serum and 1× mixture of penicillin/streptomycin/fungizone/glutamine mixture (Cambrex, Md.) geneticin as selecting agent in 75 cm^2 cell culture flasks. The 7W WT APP751 CHO cells were plated in 96-well cell culture plates in quadruplicate, containing 200 microliters of culture medium, for 18 hours at 37° C. and 5% CO2. All test compounds were placed in dimethyl sulfoxide (DMSO) before being added to the cultured confluent 7W WT APP751 CHO cells to a concentration of the test compound of 5 μM. The culture medium was collected and diluted before being assayed by ELISAs for Aβ1-40 at 10-fold dilution and Aβ1-42 at 2-fold dilution, respectively. Concentrations of Aβ1-40 and Aβ1-42, expressed in pg/ml, were determined using commercially available ELISAs (Biosource, Calif.) in a colorimetric assay using labeled antibodies detected spectrophotometrically. For compounds with an identification beginning “RI”, the compounds were tested at a concentration of 10 μM for 24 hours. Control cells were treated with DMSO containing no compound. The percentage reduction in levels of Aβ1-40 and Aβ1-42 as compared to control cells not exposed to the test compounds are reported for the compounds in Tables 1, 2, and 3, supra. An entry of “0” indicates no detectable amount of Aβ1-40 or Aβ1-42 according to the assay conditions. The data in Tables 1, 2, and 3 may be rounded to the nearest 0.1%.

Aβ1-42 = assay: Measurement of Aβ1-42 in culture medium of 7W WT APP751 CHO cells by ELISA; format: cell-based, Chinese hamster; conditions: for Aβ1-42 (% of control): CHO cells that overexpress APP751, zero = below the detection limit of the assay; for activity at 5 µM: Cricetulus griseus, Table 1, 5 μM test compound, CHO cells stably transfected with human APP751, culture medium, ELISA, control DMSO, 0 = no detectable amount, read-out: Aβ1-42 (% of control)
Method: as §1
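Note: 5 µM test compound but RI-coded compounds at 10 µM for 24 hours.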

Row | SMILES | Aβ1-40 (% of control) (Aβ1-40) | Aβ1-42 (% of control) (Aβ1-42) | activity at 5 µM (Aβ1-40) | activity at 5 µM (Aβ1-42)
1 | CC1=C(C(=O)Nc2ccccc2)C(c2ccsc2)C(C#N)=C(SCC(=O)Nc2ccc(C(C)C)cc2)N1 (stereo not shown) [RI_46] | 74.4 % of control | 70.2 % of control | – | –
2 | CC1=C(C(=O)Nc2ccccc2)C(c2ccsc2)C(C#N)=C(SCC(=O)Nc2ccc(C)c(Cl)c2)N1 (stereo not shown) [RI_67] | 42.6 % of control | 51.8 % of control | – | –
3 | CC1=C(C(=O)OCc2ccccc2)C(c2ccccc2I)C2=C(CC(C)(C)CC2=O)N1 (stereo not shown) [ST216858, phenylmethyl 4-(2-iodophenyl)-2,7,7-trimethyl-5-oxo-1,4,6,7,8-pentahydroquinoline-3-carboxylate] | – | – | 30.1% | 61.5%
4 | CC1=C(C(=O)OCc2ccccc2)C(c2coc3ccc(Cl)cc3c2=O)C2=C(CCCC2=O)N1 (stereo not shown) [ST052468, phenylmethyl 4-(6-chloro-4-oxochromen-3-yl)-2-methyl-5-oxo-1,4,6,7,8-pentahydroquinoline-3-carboxylate] | – | – | 43.9% | 31.9%
5 | CC1=C(C(=O)OCCc2ccccc2)C(c2cccc(Cl)c2Cl)C2=C(CCCC2=O)N1 (stereo not shown) [ST015062, 2-phenylethyl 4-(2,3-dichlorophenyl)-2-methyl-5-oxo-1,4,6,7,8-pentahydroquinoline-3-carboxylate] | – | – | 30.6% | 20.8%
6 | CC1=C(C(=O)Nc2ccccc2)C(c2cccs2)C(C#N)=C(SCC(=O)Nc2cccc(F)c2)N1 (stereo not shown) [RI_13] | 53.8 % of control | 41.3 % of control | – | –
7 | COC(=O)C1=C(C)NC2=C(C(=O)CCC2)C1c1cc(Br)c(O)c(OC)c1 (stereo not shown) [ST013141, methyl 4-(3-bromo-4-hydroxy-5-methoxyphenyl)-2-methyl-5-oxo-1,4,6,7,8-pentahydroquinoline-3-carboxylate] | – | – | 89.7% | 23.7%
8 | COC(=O)C1=C(C)NC2=C(C(=O)CC(C)(C)C2)C1c1cccc(Br)c1 (stereo not shown) [ST013145, methyl 4-(3-bromophenyl)-2,7,7-trimethyl-5-oxo-1,4,6,7,8-pentahydroquinoline-3-carboxylate] | – | – | 13.9% | 43.3%
9 | CCOC(=O)C1=C(C)NC2=C(C(=O)CCC2)C1c1cc2c(cc1[N+](=O)[O-])OCO2 (stereo not shown) [ST212479, ethyl 2-methyl-4-(6-nitro(2H-benzo[d]1,3-dioxolan-5-yl))-5-oxo-1,4,6,7,8-pentahydroquinoline-3-carboxylate] | – | – | 60.2% | 29.3%
10 | COc1ccc(COC(=O)C2=C(C)NC3=C(C(=O)CCC3)C2c2ccccc2C(F)(F)F)cc1 (stereo not shown) [ST052271, (4-methoxyphenyl)methyl 2-methyl-5-oxo-4-[2-(trifluoromethyl)phenyl]-1,4,6,7,8-pentahydroquinoline-3-carboxylate] | – | – | 25.8% | 23.9%
11 | COC(=O)C1=C(C)N(C)C(C)=C(C(=O)OC)C1c1cccc(Oc2ccccc2)c1 [ST024552, methyl 5-(methoxycarbonyl)-1,2,6-trimethyl-4-(3-phenoxyphenyl)-1,4-dihydropyridine-3-carboxylate] | 57.26 % of control | 74.81 % of control | – | –
12 | CC1=C(C(=O)OCCc2ccccc2)C(c2ccccc2F)C2=C(CC(C)(C)CC2=O)N1 (stereo not shown) [ST052225, 2-phenylethyl 4-(2-fluorophenyl)-2,7,7-trimethyl-5-oxo-1,4,6,7,8-pentahydroquinoline-3-carboxylate] | – | – | 37.7% | 29.7%
13 | CC1=C(C(=O)OCCOc2ccccc2)C(c2cccc(Cl)c2)C2=C(CCCC2=O)N1 (stereo not shown) [ST015091, 2-phenoxyethyl 4-(3-chlorophenyl)-2-methyl-5-oxo-1,4,6,7,8-pentahydroquinoline-3-carboxylate] | – | – | 62.4% | 75.8%
14 | N#CC1=C(N)n2c(s/c(=C\c3ccccc3Cl)c2=O)=C(C#N)C1c1ccccc1Cl (stereo not shown) [ST006953] | 47.74 % of control | 83.98 % of control | – | –
15 | COc1ccc(C2C(C(=O)OCCc3ccccc3)=C(C)NC3=C2C(=O)CC(C)(C)C3)c(OC)c1 (stereo not shown) [ST015090, 2-phenylethyl 4-(2,4-dimethoxyphenyl)-2,7,7-trimethyl-5-oxo-1,4,6,7,8-pentahydroquinoline-3-carboxylate] | – | – | 15.4% | 34.9%
16 | CC1=C(C(=O)OCc2ccccc2)C(c2ccccc2)C2=C(CC(C)(C)CC2=O)N1 (stereo not shown) [ST013215, phenylmethyl 2,7,7-trimethyl-5-oxo-4-phenyl-1,4,6,7,8-pentahydroquinoline-3-carboxylate] | – | – | 0% | 88.6%
17 | CC1=C(C(=O)OCCOc2ccccc2)C(c2ccc(OCc3ccccc3)cc2)C2=C(CCCC2=O)N1 (stereo not shown) [ST014899, 2-phenoxyethyl 2-methyl-5-oxo-4-[4-(phenylmethoxy)phenyl]-1,4,6,7,8-pentahydroquinoline-3-carboxylate] | – | – | 55.6% | 65.5%
18 | CC1=C(C(=O)Nc2ccccc2)C(c2cccs2)C(C#N)=C(SCC(=O)NC2CCC(C)CC2)N1 (stereo not shown) [RI_21] | 18.7 % of control | 22.1 % of control | – | –
19 | COc1ccc(C2CC(=O)C3=C(C2)NC(C)=C(C(=O)OCc2ccccc2)C3c2ccc3c(c2)OCO3)cc1 (stereo not shown) [ST017133, phenylmethyl 4-(2H-benzo[3,4-d]1,3-dioxolen-5-yl)-7-(4-methoxyphenyl)-2-methyl-5-oxo-1,4,6,7,8-pentahydroquinoline-3-carboxylate] | – | – | 39.2% | 79.2%
20 | CCc1ccc(C2C(C(=O)OCC(C)C)=C(C)NC3=C2C(=O)CC(c2ccccc2)C3)cc1 (stereo not shown) [ST016970, 2-methylpropyl 4-(4-ethylphenyl)-2-methyl-5-oxo-7-phenyl-1,4,6,7,8-pentahydroquinoline-3-carboxylate] | – | – | 27.7% | 27.8%
21 | CC1=C(C(=O)Nc2ccccc2)C(c2cccs2)C(C#N)=C(SCC(=O)Nc2ccccc2C(C)C)N1 (stereo not shown) [RI_56] | 54.5 % of control | 100 % of control | – | –
22 | CC1=C(C(=O)Nc2ccccc2)C(c2cccs2)C(C#N)=C(SCC(=O)NCc2ccccc2)N1 (stereo not shown) [RI_22] | 60.9 % of control | 47.6 % of control | – | –
23 | CC1=C(C(=O)OCC(C)C)C(c2ccc(F)c(F)c2)C2=C(CCCC2=O)N1 (stereo not shown) [ST052345, 2-methylpropyl 4-(3,4-difluorophenyl)-2-methyl-5-oxo-1,4,6,7,8-pentanydroquinoline-3-carboxylate] | – | – | 43.6% | 7.81%
24 | N#CC1=C(N)NC(SCC(N)=O)=C(C#N)C1c1ccccc1F (stereo not shown) [RI_2] | 100.9 % of control | 44.4 % of control | – | –
25 | COc1ccc(C2C(C(=O)OC(C)C)=C(C)NC3=C2C(=O)CC(C)(C)C3)cc1Br (stereo not shown) [ST215449, methylethyl 4-(3-bromo-4-methoxyphenyl)-2,7,7-trimethyl-5-oxo-1,4,6,7,8-pentahydroquinoline-3-carboxylate] | – | – | 24.5% | 25.7%
26 | CCC(C)OC(=O)C1=C(C)NC2=C(C(=O)CC(c3ccc(Cl)cc3)C2)C1c1ccc(Cl)cc1 (stereo not shown) [ST017089, methylpropyl 4,7-bis(4-chlorophenyl)-2-methyl-5-oxo-1,4,6,7,8-pentahydroquinoline-3-carboxylate] | – | – | 26.9% | 82.5%
